Data: patent publication US20260263454A1, “USES OF A CHECKPOINT KINASE 1 (CHK1) INHIBITOR” (Boundless Bio, Inc., priority 2023, published 2026)

Key:
[1] = test system: ecDNA+ FGFR2 amplified SNU-16 CDX tumor model; experiment: Anti-tumor and PD activity in ecDNA+ FGFR2 amplified SNU-16 CDX model, first study; format: in vivo, female SCID beige mice
Source text: (§1) Tumor volume (mm^3) data are shown as mean z SEM for each treatment group. […] PO: orally, mpk: mg/kg, QD: once per day, Q2D: once every other day.

[2] = test system: ecDNA+ FGFR2 amplified SNU-16 CDX tumor model; experiment: Durability of anti-tumor response in SNU-16 CDX model, subsequent study; format: in vivo, Female BALB/c nude mice; details: single agents vs vehicle: Compound 1 50 mg/kg PO Q2D, infigratinib 15 mg/kg PO QD
Source text: as §1

[3] = test system: ecDNA+ CDK4 amplified SJSA-1 CDX tumor model; experiment: Anti-tumor activity in ecDNA+ CDK4 amplified osteosarcoma SJSA-1 CDX model; format: in vivo, Female Hsd:Athymic Nude-Foxnlnu mice; details: vs vehicle
Source text: Tumor volume (mm^3) data are shown as mean±SEM for each treatment group. […] PO: orally, QD: once every day, Q2D: once every other day.

Structure (SMILES) | mean % ΔTGI ([1]; Day 12 vs vehicle, single agents: Compound 1 100 mg/kg PO Q2D, infigratinib 15 mg/kg PO QD) [%] | antitumor activity (in words) ([1]; infigratinib 15 mg/kg PO QD alone or with Compound 1 PO Q2D) | tumor FGFR2 gene copy number (qPCR) ([1]; tumors treated for 12 days, infigratinib 15 mg/kg PO QD alone or with Compound 1 25, 50, 100 mg/kg PO Q2D) | mean % ΔTGI [2] [%] | mean % ΔTGI ([3]; single agent 20 mg/kg PO QD, Study 2 (FIG. 3B)) [%] | mean % ΔTGI ([3]; single agent 50 mg/kg PO QD, Study 1 (FIG. 3A)) [%]
CCN1CCN(c2ccc(Nc3cc(N(C)C(=O)Nc4c(Cl)c(OC)cc(OC)c4Cl)ncn3)cc2)CC1 [infigratinib] | 97.6 | tumors resumed growth | concomitant increase in FGFR2 gene copy number | 65.4 |  | 
CC(=O)c1c(C)c2cnc(Nc3ccc(N4CCNCC4)cn3)nc2n(C2CCCC2)c1=O [palbociclib] |  |  |  |  | 16.9 | 78.3
